In ChEMBL document CHEMBL1201862, “PubChem BioAssay data set” (2004) one finds IC50, EC50 and CC50 data, which are given here for 16 compounds.

The target of test [1] is Transitional endoplasmic reticulum ATPase (Homo sapiens, UniProt P55072, C522A). As to the kind of experiment: Luminescence counterscreen assay for p97 inhibitors: dose response biochemical high throughput screening assay to identify inhibitors of the C522A mutant p97 ATPase: synthesized compounds. [Related pubchem assays: 1481, 1517, 1551 ]. For orientation: The purpose of a counterscreen is to sort out artefacts and off-target activity.
Sequence of Transitional endoplasmic reticulum ATPase (Homo sapiens, UniProt P55072, C522A) (P55072 2-806 C522A limits assumed): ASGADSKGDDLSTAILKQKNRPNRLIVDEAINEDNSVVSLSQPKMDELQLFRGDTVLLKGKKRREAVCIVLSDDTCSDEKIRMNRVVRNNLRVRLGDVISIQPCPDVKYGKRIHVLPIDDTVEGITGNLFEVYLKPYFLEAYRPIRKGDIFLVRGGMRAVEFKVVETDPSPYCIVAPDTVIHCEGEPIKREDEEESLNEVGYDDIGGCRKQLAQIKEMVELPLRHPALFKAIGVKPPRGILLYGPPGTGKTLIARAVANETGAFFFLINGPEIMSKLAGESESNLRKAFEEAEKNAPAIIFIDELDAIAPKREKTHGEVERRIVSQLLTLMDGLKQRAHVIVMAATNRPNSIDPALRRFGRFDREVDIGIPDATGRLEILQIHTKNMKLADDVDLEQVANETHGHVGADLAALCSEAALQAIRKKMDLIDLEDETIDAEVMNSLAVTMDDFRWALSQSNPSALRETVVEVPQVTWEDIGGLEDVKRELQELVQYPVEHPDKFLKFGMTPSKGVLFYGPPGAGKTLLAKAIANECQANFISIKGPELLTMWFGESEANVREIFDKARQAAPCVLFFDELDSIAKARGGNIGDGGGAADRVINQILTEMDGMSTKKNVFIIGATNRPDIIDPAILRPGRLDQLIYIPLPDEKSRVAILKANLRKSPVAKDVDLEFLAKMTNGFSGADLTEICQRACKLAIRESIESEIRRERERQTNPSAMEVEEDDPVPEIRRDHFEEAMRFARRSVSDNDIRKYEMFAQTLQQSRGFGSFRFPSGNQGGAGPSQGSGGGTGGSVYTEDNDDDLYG

Test [2] has as its target Transitional endoplasmic reticulum ATPase (Homo sapiens, UniProt P55072). As to the kind of experiment: Luminescence dose response biochemical high throughput screening assay for inhibitors of the p97 ATPase: synthesized compounds. [Related pubchem assays: 1481, 1517 ].
The nature of test [3]: viability of PTEN-deleted HCT116 cells – cell-based, HCT116 PTEN knockout, dose response (AID 1047).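 Further: HCT116 colon tumor cells with PTEN knocked out; cells exposed to compound for 60 hours before readout; potency for loss of cell viability measured by luminescence.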 It is filed as functional.
The nature of test [4]: viability loss of HPDE-C7K cells – cell-based, fluorescence, HTS, primary screen (AID 431). The settings on record: Homo sapiens. Format: functional.
A short description of test [5]: HPDE-C7 pancreatic duct cell viability loss – fluorescence, HTS (AID 430). Format: functional, cell-based. The settings on record: Homo sapiens.
Test [6] can be described thus: A Cell Based Secondary Assay To Explore Cytotoxicity of Compounds that Sensitize Mycobacterium Tuberculosis to Beta-Lactam Antibiotics. It is filed as functional.
In a further test the test system is H9c2. As to the kind of experiment: cells. Format: functional, cell-based. To be noted: Rattus norvegicus, H9c2, Myocardium.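 Further: confirmatory concentration-response retest of ultra-high-throughput screening hits for modulation of myocardial damage; cell death induced by hydrogen peroxide oxidative stress; compound pretreatment for 60 min then peroxide exposure for 2 h; potency is for protecting the cells against peroxide damage rather than for killing them.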
Test [7] is described as follows: viability of HCT116 lacking mutant beta-catenin – cell-based, human colon tumor, dose response (AID 1045).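 Further: HCT116 colon tumor cells with beta catenin knocked out; cells exposed to compound for 60 hours.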 Format: functional.
Test [8] addresses T1, Estrogen receptor beta (Homo sapiens, UniProt Q92731).
Test [9] deals with T2, Carboxy-terminal domain RNA polymerase II polypeptide A small phosphatase 1 (Homo sapiens, UniProt Q9GZU7).
T2 sequence (Q9GZU7 whole entry): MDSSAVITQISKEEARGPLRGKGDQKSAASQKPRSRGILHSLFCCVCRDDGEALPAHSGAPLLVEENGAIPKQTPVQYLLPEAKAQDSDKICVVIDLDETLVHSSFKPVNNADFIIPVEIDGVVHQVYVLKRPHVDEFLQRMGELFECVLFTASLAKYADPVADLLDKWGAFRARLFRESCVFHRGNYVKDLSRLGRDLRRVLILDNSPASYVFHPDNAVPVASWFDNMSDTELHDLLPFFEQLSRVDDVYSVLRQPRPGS
Put plainly: CTDSP1 inhibitors, concentration-response, biochemical, absorbance readout, ultra-high-throughput screen actives (AID 540297). Format: functional.

In another test the target is T3, Bcl-2-like protein 10 (Homo sapiens, UniProt Q9HD36).
T3 sequence (Q9HD36 whole entry): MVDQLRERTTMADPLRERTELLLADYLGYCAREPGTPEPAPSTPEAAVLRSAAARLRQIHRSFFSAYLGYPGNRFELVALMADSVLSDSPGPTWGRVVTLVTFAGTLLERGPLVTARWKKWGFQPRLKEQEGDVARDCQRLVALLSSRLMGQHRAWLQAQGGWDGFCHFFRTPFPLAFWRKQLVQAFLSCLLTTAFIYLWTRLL
Put plainly: Bcl-B/TR3 peptide binding disruption – biochemical, fluorescence polarization, FITC-TR3 peptide, selectivity assay for Bfl-1 inhibitor project, primary screen (AID 748). A general note: Fluorescence polarisation rises when a labelled molecule tumbles more slowly, as on binding a larger partner.

Test [10] concerns the target T1, Estrogen receptor beta. As to the kind of experiment: blockers of SRC-3 recruitment to ERβ – biochemical, ELISA, streptavidin-HRP readout, orthogonal assay, confirmation (AID 1060).
Test [11] addresses Glyceraldehyde-3-phosphate dehydrogenase (Homo sapiens, UniProt P04406).
A further test deals with Mucolipin-3 (Homo sapiens, UniProt Q8TDD5). Put plainly: Dose response cell-based high-throughput screening assay for agonists of the transient receptor potential channel ML3 (TRPML3). [Related pubchem assays: 1526, 1424, 1448 ]. Format: functional.
For the next test, the target named is Ion channel NompC (Danio rerio, UniProt Q7T1G6). Put plainly: Fluorescence counterscreen assay for TRPML3 agonists: dose response cell-based high-throughput screening assay to identify agonists of the transient receptor potential channel N1 (TRPN1). [Related pubchem assays: 1526, 1424, 1448 ]. It is filed as functional.
Test [12] addresses Neuropeptide Y receptor type 1 (Homo sapiens, UniProt P25929). Format: functional.
The target of test [13] is Neuropeptide Y receptor type 2 (Homo sapiens, UniProt P49146). It is filed as functional, cell-based.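 Further: HEK293 cells expressing the receptor and a CNG channel; stimulus was NPY near EC95 followed by isoproterenol to raise cAMP; antagonist potency measured as restoring cAMP signal that NPY suppresses.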
Sequence of Neuropeptide Y receptor type 2 (P49146 whole entry): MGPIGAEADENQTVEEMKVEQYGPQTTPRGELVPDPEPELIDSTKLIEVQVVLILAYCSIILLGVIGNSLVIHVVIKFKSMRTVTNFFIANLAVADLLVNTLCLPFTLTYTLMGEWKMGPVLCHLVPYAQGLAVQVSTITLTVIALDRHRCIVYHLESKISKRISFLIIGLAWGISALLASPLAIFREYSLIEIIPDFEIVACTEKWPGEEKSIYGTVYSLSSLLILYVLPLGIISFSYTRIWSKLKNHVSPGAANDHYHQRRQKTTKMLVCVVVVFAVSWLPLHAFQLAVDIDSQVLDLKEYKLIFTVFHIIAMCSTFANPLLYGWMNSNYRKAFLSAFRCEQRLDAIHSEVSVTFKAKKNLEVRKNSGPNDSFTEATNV
The target in test [14] is Luciferin 4-monooxygenase (Photinus pyralis, UniProt P08659). As to the kind of experiment: Counter Screen for Luciferase-based Assay Positives. [Related pubchem assays: 620, 618, 411 ].
Test [15] concerns the target Protein-tyrosine kinase 2-beta (Homo sapiens, UniProt Q14289).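 Further: potency of inhibitors of PYK2 kinase phosphorylation of poly-GT substrate.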
Test [16] concerns the target T4, Oxysterols receptor LXR-beta (Homo sapiens, UniProt P55055).
T4 sequence (P55055 whole entry): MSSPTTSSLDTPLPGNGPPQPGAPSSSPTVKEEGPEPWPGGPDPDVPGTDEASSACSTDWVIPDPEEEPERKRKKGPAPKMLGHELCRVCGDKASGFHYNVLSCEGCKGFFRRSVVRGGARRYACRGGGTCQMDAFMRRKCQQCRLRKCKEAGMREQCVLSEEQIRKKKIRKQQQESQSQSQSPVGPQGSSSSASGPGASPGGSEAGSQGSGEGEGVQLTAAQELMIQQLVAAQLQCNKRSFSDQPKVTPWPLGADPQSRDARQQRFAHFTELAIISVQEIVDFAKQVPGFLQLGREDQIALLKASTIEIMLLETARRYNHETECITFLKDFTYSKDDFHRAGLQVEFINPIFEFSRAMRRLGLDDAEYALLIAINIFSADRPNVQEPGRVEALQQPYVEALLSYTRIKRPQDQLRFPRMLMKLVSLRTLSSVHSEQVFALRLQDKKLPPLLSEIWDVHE
As to the kind of experiment: LXR agonists, Gal4 luciferase reporter, dose response, counter-screen for ssDAF-12 agonist project, cell-based, luminescence, HEK293, S. stercoralis campaign (AID 720737). It is filed as functional. To be noted: read-out: IC50 (the source's name). In general terms: A reporter such as luciferase makes a cellular process visible.

The nature of test [17]: Luminescence-based cell-based high throughput dose response assay to identify activators of the DAF-12 from the parasite S. stercoralis (ssDAF-12). It is filed as functional.
The subject of another test is HT-1080. As to the kind of experiment: HT1080 cell viability loss – fluorescence readout (AID 620). Format: functional, cell-based. The settings on record: Homo sapiens.
Test [18] deals with T5, Aryl hydrocarbon receptor (Homo sapiens, UniProt P35869).
T5 sequence (P35869 whole entry): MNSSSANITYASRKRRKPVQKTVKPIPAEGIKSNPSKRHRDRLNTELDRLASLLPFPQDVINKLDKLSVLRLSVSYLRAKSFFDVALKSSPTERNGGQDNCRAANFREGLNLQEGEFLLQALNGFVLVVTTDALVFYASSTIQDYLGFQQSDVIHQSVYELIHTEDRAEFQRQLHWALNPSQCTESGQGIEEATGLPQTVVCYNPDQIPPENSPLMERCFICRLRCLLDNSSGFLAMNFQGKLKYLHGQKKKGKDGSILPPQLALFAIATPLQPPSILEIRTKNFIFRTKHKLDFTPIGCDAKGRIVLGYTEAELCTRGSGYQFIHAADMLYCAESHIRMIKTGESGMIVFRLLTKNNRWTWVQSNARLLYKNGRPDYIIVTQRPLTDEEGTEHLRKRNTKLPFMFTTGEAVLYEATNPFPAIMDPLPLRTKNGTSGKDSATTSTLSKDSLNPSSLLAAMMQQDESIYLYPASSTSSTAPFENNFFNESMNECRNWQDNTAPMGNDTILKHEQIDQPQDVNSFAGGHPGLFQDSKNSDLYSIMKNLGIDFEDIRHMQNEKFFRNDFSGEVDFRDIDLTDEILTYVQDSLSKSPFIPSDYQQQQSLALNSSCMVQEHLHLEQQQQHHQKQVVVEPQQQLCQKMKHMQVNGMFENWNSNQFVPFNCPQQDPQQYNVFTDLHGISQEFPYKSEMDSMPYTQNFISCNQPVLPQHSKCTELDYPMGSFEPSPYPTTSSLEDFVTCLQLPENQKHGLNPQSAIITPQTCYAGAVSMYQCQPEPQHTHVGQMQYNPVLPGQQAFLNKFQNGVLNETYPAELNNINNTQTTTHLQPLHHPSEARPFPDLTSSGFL
Put plainly: Luminescence-based cell-based high throughput dose response assay for activators of the Aryl Hydrocarbon Receptor (AHR). [Related pubchem assays: 2796 (Primary screen (AHR activators in singlicate)), 2845 (Confirmation screen (AHR activators in triplicate)), 434939 (Counterscreen (PXR activators in triplicate)), 2804 (Summary (AHR activators))]. It is filed as ADME.

The target in test [19] is T6, Mannose-6-phosphate isomerase (Homo sapiens, UniProt P34949).
T6 sequence (P34949 whole entry): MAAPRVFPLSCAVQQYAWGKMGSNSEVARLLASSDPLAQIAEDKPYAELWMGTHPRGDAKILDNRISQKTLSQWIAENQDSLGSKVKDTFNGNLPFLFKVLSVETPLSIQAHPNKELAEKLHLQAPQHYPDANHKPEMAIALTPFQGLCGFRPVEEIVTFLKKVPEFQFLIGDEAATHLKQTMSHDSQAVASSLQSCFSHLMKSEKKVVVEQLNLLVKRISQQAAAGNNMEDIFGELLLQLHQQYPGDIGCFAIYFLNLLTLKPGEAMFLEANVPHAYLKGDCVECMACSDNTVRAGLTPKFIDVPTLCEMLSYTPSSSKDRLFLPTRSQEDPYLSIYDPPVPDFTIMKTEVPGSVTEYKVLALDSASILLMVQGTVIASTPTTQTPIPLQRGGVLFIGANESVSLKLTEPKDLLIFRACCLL
Put plainly: MPI enzyme activity inhibition – biochemical, fluorescence intensity, coupled assay, primary screen (AID 1209).

Test [20] relates to Streptococcus sp. 'group A'. Put plainly: Streptococcus pyogenes SK(-)GAS viability under kanamycin – luminescence, BacTiterGlo, confirmation, counter-screen for streptokinase expression inhibitor project, dose response (AID 1900). Format: functional, organism-based.
The next test concerns Streptococcus. Put plainly: GAS UMAA2166 growth inhibition – luminescence, BacTiterGlo, counter-screen for streptokinase expression inhibitor project, dose response (AID 1915).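 Further: potency for reduction of bacterial viability or growth.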 Format: functional, organism-based.
In test [21] the target is Peroxisome proliferator-activated receptor gamma/Nuclear receptor coactivator 1 (Homo sapiens, UniProt P37231). Format: functional.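 Further: agonist potency as compounds enhance coactivator SRC-1 recruitment to PPARgamma.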
For test [22], the target named is Peroxisome proliferator-activated receptor gamma/Nuclear receptor coactivator 2 (Homo sapiens, UniProt P37231). It is filed as functional.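 Further: agonist potency for raising coactivator recruitment to the receptor.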
For test [23], the target named is Peroxisome proliferator-activated receptor gamma/Nuclear receptor coactivator 3 (Homo sapiens, UniProt P37231). Format: functional.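 Further: agonist potency for raising coactivator recruitment to the receptor.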
Test [24] deals with Lysosomal acid glucosylceramidase (Homo sapiens, UniProt P04062). As to the kind of experiment: Dose response cell-based high throughput screening assay to identify enhancers of beta-glucosidase activity. [Related pubchem assays: 784 ]. Format: functional.
Sequence of Lysosomal acid glucosylceramidase (P04062 whole entry): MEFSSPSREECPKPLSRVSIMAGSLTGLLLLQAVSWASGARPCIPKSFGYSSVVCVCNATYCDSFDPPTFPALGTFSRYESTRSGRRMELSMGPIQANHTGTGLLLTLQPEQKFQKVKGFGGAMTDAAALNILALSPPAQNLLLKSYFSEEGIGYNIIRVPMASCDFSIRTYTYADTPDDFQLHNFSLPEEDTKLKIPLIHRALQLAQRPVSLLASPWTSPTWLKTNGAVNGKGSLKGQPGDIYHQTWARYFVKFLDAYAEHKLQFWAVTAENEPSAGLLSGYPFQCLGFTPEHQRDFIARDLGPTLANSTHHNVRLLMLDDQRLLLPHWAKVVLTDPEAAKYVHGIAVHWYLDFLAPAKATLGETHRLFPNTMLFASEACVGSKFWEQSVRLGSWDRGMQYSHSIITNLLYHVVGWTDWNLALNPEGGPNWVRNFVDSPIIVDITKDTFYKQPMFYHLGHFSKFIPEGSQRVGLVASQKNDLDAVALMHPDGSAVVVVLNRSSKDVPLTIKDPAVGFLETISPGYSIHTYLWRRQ

SMILES strings stand for the structures. Calls of active or inactive are those of the source.

Sequence of Neuropeptide Y receptor type 1 (P25929 whole entry): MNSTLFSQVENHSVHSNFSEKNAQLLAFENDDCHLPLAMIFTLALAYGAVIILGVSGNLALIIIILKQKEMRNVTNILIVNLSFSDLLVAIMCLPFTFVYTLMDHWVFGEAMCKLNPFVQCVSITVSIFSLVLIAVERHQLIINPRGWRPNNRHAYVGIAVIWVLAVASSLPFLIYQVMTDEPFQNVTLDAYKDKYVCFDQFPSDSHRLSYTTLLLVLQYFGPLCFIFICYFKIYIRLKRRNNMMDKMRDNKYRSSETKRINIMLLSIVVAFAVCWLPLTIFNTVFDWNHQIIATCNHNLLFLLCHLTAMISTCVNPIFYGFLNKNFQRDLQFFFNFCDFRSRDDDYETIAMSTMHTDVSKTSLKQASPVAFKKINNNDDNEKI
T1 sequence (Q92731 whole entry, the tested form may be a part): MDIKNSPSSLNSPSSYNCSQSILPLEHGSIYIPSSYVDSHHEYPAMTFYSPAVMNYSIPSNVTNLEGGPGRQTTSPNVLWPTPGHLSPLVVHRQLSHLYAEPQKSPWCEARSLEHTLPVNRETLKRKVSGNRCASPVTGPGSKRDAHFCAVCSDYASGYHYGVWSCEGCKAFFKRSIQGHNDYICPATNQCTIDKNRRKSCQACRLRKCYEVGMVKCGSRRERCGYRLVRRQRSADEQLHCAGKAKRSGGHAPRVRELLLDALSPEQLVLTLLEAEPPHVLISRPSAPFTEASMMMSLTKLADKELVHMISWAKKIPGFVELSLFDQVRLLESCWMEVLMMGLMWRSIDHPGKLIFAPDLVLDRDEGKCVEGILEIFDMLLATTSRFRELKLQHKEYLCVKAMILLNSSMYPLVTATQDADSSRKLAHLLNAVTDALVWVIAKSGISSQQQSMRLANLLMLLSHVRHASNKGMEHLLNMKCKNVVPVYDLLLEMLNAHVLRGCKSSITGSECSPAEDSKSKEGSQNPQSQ
Sequence of Transitional endoplasmic reticulum ATPase (Homo sapiens, UniProt P55072) (P55072 whole entry): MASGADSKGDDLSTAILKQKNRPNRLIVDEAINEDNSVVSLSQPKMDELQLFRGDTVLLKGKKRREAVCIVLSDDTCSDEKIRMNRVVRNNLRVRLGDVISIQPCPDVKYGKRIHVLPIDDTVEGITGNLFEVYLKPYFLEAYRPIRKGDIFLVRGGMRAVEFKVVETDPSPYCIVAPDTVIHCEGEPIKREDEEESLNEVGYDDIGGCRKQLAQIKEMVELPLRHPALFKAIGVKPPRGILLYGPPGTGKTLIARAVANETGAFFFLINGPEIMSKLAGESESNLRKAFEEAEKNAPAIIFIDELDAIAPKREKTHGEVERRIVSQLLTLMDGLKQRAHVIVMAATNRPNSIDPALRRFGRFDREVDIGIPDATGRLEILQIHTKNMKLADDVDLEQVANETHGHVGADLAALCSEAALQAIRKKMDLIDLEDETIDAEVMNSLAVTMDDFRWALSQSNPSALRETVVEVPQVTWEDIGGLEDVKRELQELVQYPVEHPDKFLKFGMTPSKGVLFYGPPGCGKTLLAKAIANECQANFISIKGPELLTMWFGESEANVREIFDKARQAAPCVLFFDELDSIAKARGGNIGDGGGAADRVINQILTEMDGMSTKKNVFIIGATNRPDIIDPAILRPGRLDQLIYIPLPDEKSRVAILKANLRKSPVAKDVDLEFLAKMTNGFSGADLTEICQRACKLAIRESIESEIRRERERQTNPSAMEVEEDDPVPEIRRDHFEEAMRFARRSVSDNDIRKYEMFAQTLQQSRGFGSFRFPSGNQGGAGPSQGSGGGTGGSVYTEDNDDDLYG
Sequence of Glyceraldehyde-3-phosphate dehydrogenase (P04406 whole entry): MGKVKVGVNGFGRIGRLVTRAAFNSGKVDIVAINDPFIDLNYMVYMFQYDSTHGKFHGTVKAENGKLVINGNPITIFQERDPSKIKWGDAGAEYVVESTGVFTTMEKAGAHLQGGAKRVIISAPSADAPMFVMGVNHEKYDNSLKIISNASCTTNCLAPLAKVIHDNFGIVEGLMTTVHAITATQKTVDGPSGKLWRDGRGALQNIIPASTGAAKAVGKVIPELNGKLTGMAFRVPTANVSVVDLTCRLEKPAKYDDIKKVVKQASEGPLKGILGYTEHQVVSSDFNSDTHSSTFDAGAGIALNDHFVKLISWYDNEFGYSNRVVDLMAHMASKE
Sequence of Protein-tyrosine kinase 2-beta (Q14289 whole entry): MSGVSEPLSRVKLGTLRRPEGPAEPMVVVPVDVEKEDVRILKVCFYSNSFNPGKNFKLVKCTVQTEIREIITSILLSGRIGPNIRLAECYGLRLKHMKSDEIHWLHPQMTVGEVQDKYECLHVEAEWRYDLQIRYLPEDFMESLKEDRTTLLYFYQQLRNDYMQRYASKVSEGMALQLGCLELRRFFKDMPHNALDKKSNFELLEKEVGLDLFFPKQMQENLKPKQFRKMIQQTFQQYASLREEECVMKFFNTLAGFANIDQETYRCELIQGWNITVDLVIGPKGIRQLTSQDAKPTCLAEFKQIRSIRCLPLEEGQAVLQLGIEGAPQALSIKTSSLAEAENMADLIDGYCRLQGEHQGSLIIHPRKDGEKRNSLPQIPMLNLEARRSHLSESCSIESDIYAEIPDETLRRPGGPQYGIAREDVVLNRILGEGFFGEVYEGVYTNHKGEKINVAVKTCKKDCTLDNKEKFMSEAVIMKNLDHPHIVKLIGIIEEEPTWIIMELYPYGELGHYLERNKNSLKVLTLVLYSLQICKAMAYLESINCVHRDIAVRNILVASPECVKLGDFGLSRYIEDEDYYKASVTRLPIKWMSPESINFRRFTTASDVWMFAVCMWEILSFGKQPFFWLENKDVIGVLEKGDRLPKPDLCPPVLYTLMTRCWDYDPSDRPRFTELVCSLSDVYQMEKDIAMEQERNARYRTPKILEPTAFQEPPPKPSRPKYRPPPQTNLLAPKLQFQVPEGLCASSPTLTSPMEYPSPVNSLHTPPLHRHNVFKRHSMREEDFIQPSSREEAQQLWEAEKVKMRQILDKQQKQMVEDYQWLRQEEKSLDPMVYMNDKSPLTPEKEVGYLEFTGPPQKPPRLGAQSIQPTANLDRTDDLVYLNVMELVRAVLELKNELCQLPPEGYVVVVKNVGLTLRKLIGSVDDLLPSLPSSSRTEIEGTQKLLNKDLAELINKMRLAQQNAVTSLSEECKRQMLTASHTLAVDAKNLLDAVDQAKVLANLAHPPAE

The IC50 is the concentration needed to halve the response being measured. For the compound `Cc1cc(-c2csc(Nc3ccc(C#N)cc3)n2)c(C)n1Cc1ccccc1`, the IC50 in test [1] and in test [2] was > 50 µM (not active) throughout.

As a reminder, the CC50 is the concentration at which the toxic effect on the cells reaches its halfway point. Consider `CCOC(=O)C1=C(C)N=c2s/c(=C\c3ccncc3)c(=O)n2C1c1ccc2c(c1)OCO2` (configuration not stated), for which the EC50 in test [3] was 10.5 µM (active); in test [4], 11 µM (active); in test [5], 16.3 µM (active); in [7], 10.2 µM (active). In addition, in test [6], the CC50 is > 40 µM (active). The IC50 in the test with H9c2 was > 79 µM (inactive).

In the case of `COc1ccc2c(c1)c(=O)oc1cc(OCC(=O)N3CCc4ccccc4C3)ccc12`, the 50% inhibitory concentration (IC50) was > 50 µM (not active) against Estrogen receptor beta [8], 2.9 µM (active) in test [9], 29.8 µM (active) at Bcl-2-like protein 10 and 5.58 µM (active) at Estrogen receptor beta [10].

`C[C@@H]1CN(C2=C(Cl)C(=O)N(c3ccc(C(F)(F)F)cc3)C2=O)CCN1`: the IC50 in [11] is > 50 µM (inconclusive).

As for `COc1cccc(CN(Cc2ccco2)C(c2ccc(F)cc2)c2nnnn2C(C)(C)C)c1` (configuration not stated), the EC50 at Mucolipin-3 and on Ion channel NompC was > 29.9 µM (not active) in each case.

In the case of `CCOC(=O)/C(C#N)=C/c1sc2ccccc2c1-c1ccccc1`, the IC50 in test [1] and in test [2] was > 50 µM (not active) each time.

As to `COC(=O)c1ccc(CSc2nc3sc4c(c3c(=O)n2C)CCCC4)o1`, the IC50 was 6.95 µM (active) in test [12] and 6.21 µM (active) in test [13].

For the compound `O=C1c2ccccc2C(=O)C1c1ccnc2ccccc12`, the EC50 is 3.42 µM (active) in [14], > 67.5 µM (inactive) in test [16] and > 50 µM (not active) in the test with HT-1080. The IC50 in [15] is 4.75 µM (active); in test [17], > 67.5 µM (inactive).

Consider `Cc1ccc2cc3c(NC(=O)CC(C)C)nn(C)c3nc2c1`, for which, in test [18], the EC50 was 0.476 µM (active).

As to `Cc1ccc([N+](=O)[O-])c(C)[n+]1C`, in [19], the IC50 was > 50 µM (not active).

`COc1ccc(C(=O)/C=C/c2ccc(O)cc2)c(O)c1CC=C(C)C`: the EC50 in test [20] is 2.71 µM (active); in the test on Streptococcus, 3.01 µM (active). The CC50 in test [6] was > 40 µM (active).

As for `O=C1c2cccc(OCC(=O)N3CCCc4ccccc43)c2CCN1Cc1ccccc1`, the EC50 in test [21], in test [22] and in [23] was > 79.4 µM (not active) throughout.

`CN(C)Cc1ccccc1Sc1cccc2ccccc12`: the IC50 in test [12] is 6.03 µM (active); in test [13] it was 9.22 µM (active).

Take `CCOc1ccccc1CNS(=O)(=O)c1ccc2nc(O)sc2c1`: the EC50 in test [24] is reported as > 10 µM (not active).

As for `CCOC(=O)NC(CC(=O)O)c1ccc(OCC)cc1` (configuration not stated), the EC50 in test [24] is listed as > 50 µM (not active).

`CCOC(=O)c1oc2ccccc2c1N`: in test [18], the EC50 is 7.43 µM (active).
